Reference: ChEMBL document CHEMBL5252558, “Noonindoles G-L: Indole Diterpene Glycosides from the Australian Marine-Derived Fungus Aspergillus noonimiae CMB-M0339” (J Nat Prod, 2023)
pIC50: −log10 of the molar value. Activity calls are given as the source filed them. The rule behind the calls is not given here.

Assays:
Candida albicans = assay: Antifungal activity against Candida albicans ATCC 10231 assessed as inhibition of fungal growth incubated for 48 hrs by spectrophotometric analysis; format: functional, organism-based
Escherichia coli = assay: Antibacterial activity against Escherichia coli ATCC 11775 assessed as inhibition of bacterial growth incubated for 24 hrs by spectrophotometric analysis; format: functional, organism-based
Staphylococcus aureus = assay: Antibacterial activity against Staphylococcus aureus ATCC 25923 assessed as inhibition of bacterial growth incubated for 24 hrs by spectrophotometric analysis; format: functional, organism-based
Bacillus subtilis = assay: Antibacterial activity against Bacillus subtilis ATCC 6633 assessed as inhibition of bacterial growth incubated for 24 hrs by spectrophotometric analysis; format: functional, organism-based
SW-620 = assay: Cytotoxicity against human SW620 cells assessed as inhibition of cell growth incubated for 68 hrs by MTT assay; format: functional, cell-based; conditions: SW-620, 68 h
NCI-H460 = assay: Cytotoxicity against human NCI-H460 cells assessed as inhibition of cell growth incubated for 68 hrs by MTT assay; format: functional, cell-based; conditions: NCI-H460, 68 h

Compound	Activity (Candida albicans)	Activity (Escherichia coli)	Activity (Staphylococcus aureus)	Activity (Bacillus subtilis)	pIC50 (SW-620)	pIC50 (NCI-H460)
CC(C)(O[C@@H]1O[C@H](CO)[C@@H](O)[C@H](O)[C@@H]1O)[C@@H]1CC[C@]2(CO)[C@H](CC[C@@]3(C)[C@H]2CC[C@H]2Cc4c([nH]c5ccccc45)[C@@]23C)O1	inactive	inactive	inactive	inactive	< 4.52	< 4.52
CC(C)(O[C@@H]1O[C@H](CO)[C@@H](O)[C@H](O)[C@@H]1O)[C@@H]1CC[C@]2(C=O)[C@H](CC[C@@]3(C)[C@H]2CC[C@H]2Cc4c([nH]c5ccccc45)[C@@]23C)O1	inactive	inactive	inactive	inactive	< 4.52	< 4.52
CC(C)(O[C@@H]1O[C@H](CO)[C@@H](O)[C@H](O)[C@@H]1O)[C@@H]1CC[C@]2(C)[C@H](CC[C@@]3(C)[C@H]2CC[C@H]2Cc4c([nH]c5ccccc45)[C@@]23C)O1	inactive	inactive	inactive	inactive	< 4.52	< 4.52
CC(C)(O[C@@H]1O[C@H](CO)[C@@H](O)[C@H](O)[C@@H]1O)[C@H]1O[C@H]2CC[C@@]3(C)[C@@H](CC[C@H]4Cc5c([nH]c6ccccc56)[C@@]43C)C2=CC1=O	inactive	inactive	inactive	inactive	< 4.52	< 4.52
CC(C)(O[C@@H]1O[C@H](CO)[C@@H](O)[C@H](O)[C@@H]1O)[C@H]1O[C@H]2CC[C@@]3(C)[C@@H](CC[C@H]4Cc5c([nH]c6ccccc56)[C@@]43C)C2=C[C@H]1O	inactive	inactive	inactive	inactive	< 4.52	< 4.52
CC(C)(O[C@@H]1O[C@H](CO)[C@@H](O)[C@H](O)[C@@H]1O)[C@H]1O[C@@]2(O)CC[C@@]3(C)[C@@H](CC[C@H]4Cc5c([nH]c6ccccc56)[C@@]43C)C2=CC1=O	inactive	inactive	inactive	inactive	< 4.52	< 4.52
